Laboratory results from patent US20080188503A1, “New Compounds II” (AstraZenaca AB, priority 2006, published 2008).

Molecular target: T1, recombinant human GSK3β (Homo sapiens, UniProt P49841)
T1 construct: purchased Dundee University, UK
Test: GSK3β Scintillation Proximity Assay (ATP competition)
Format: biochemical
Conditions: recombinant human GSK3β SPA; 1 μM ATP, 1 μM biotinylated peptide substrate; Ki calculated with Km of ATP 20 μM
Procedure: Determination of ATP Competition in Scintillation Proximity GSK3β Assay.
GSK3β Scintillation Proximity Assay.
The competition experiments were carried out in duplicate with 10 different concentrations of the inhibitors in clear-bottom microtiter plates (Wallac, Finland). A biotinylated peptide substrate, Biotin-Ala-Ala-Glu-Glu-Leu-Asp-Ser-Arg-Ala-Gly-Ser(PO3H2)-Pro-Gln-Leu (AstraZeneca, Lund), was added at a final concentration of 1 μM in an assay buffer containing 1 mU recombinant human GSK3β (Dundee University, UK), 12 mM morpholinepropanesulfonic acid (MOPS), pH 7.0, 0.3 mM EDTA, 0.01% β-mercaptoethanol, 0.004% Brij 35 (a […] detergent), 0.5% glycerol and 0.5 μg BSA/25 μl. The reaction was initiated by the addition of 0.04 μCi [γ-^33P]ATP (Amersham, UK) and unlabelled ATP at a final concentration of 1 μM and assay volume of 25 μl. After incubation for 20 minutes at room temperature, each reaction was terminated by the addition of 25 μl stop solution containing 5 mM EDTA, 50 μM ATP, 0.1% Triton X-100 and 0.25 mg streptavidin coated Scintillation Proximity Assay (SPA) beads (Amersham, UK). After 6 hours the radioactivity was determined in a liquid scintillation counter (1450 MicroBeta Trilux, Wallac). The inhibition curves were analysed by non-linear regression using GraphPad Prism, USA. The Km value of ATP for GSK3β, used to calculate the inhibition constants (Ki) of the various compounds, was 20 μM.

T1 sequence (P49841 whole entry): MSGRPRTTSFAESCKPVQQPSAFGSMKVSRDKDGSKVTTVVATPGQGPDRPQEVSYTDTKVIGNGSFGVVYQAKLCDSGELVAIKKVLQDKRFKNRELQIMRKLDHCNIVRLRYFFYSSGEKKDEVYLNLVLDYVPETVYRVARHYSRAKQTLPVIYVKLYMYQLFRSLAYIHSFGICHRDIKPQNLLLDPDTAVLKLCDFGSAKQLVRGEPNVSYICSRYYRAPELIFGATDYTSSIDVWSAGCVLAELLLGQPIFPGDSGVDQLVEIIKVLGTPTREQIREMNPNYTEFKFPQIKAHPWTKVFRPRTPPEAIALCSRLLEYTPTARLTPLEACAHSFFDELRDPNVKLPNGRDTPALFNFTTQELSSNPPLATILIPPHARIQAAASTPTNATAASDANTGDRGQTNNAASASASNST

Cc1ncc(-c2nc(Nc3cncnc3)ncc2F)n1C1CCOCC1 [Example 1, 5-Fluoro-4-[2-methyl-1-(tetrahydro-2H-pyran-4-yl)-1H-imidazol-5-yl]-N-pyrimidin-5-ylpyrimidin-2-amine]
Ki: 220 nM

CC(=O)c1cncc(Nc2ncc(F)c(-c3cnc(C)n3C3CCOCC3)n2)c1 [Example 2, 1-[5-({5-Fluoro-4-[2-methyl-1-(tetrahydro-2H-pyran-4-yl)-1H-imidazol-5-yl]pyrimidin-2-yl}amino)pyridin-3-yl]ethanone]
Ki: 49 nM

COc1cccc(Nc2ncc(F)c(-c3cnc(C)n3C3CCOCC3)n2)n1 [Example 3, 5-Fluoro-N-(6-methoxypyridin-2-yl)-4-[2-methyl-1-(tetrahydro-2H-pyran-4-yl)-1H-imidazol-5-yl]pyrimidin-2-amine]
Ki: 530 nM

Cc1ncc(-c2nc(Nc3ccc(C(F)(F)F)cn3)ncc2F)n1C1CCOCC1 [Example 4, 5-Fluoro-4-[2-methyl-1-(tetrahydro-2H-pyran-4-yl)-1H-imidazol-5-yl]-N-[5-(trifluoromethyl)pyridin-2-yl]pyrimidin-2-amine]
Ki: 2600 nM

Cc1ccc(Nc2ncc(F)c(-c3cnc(C)n3C3CCOCC3)n2)cn1 [Example 5, 5-Fluoro-N-(6-methylpyridin-3-yl)-4-[2-methyl-1-(tetrahydro-2H-pyran-4-yl)-1H-imidazol-5-yl]pyrimidin-2-amine]
Ki: 28 nM

COc1ccnc(Nc2ncc(F)c(-c3cnc(C)n3C3CCOCC3)n2)c1 [Example 6, 5-Fluoro-N-(4-methoxypyridin-2-yl)-4-[2-methyl-1-(tetrahydro-2H-pyran-4-yl)-1H-imidazol-5-yl]pyrimidin-2-amine]
Ki: 1100 nM

Cc1ncc(-c2nc(Nc3ccc(CN4CCOCC4)nc3)ncc2F)n1C1CCOCC1 [Example 10, 5-Fluoro-4-[2-methyl-1-(tetrahydro-2H-pyran-4-yl)-1H-imidazol-5-yl]-N-[6-(morpholin-4-ylmethyl)pyridin-3-yl]pyrimidin-2-amine]
Ki: 64 nM

Cc1ncc(-c2nc(Nc3ccc(CN4CCCCC4)nc3)ncc2F)n1C1CCOCC1 [Example 12, 5-Fluoro-4-[2-methyl-1-(tetrahydro-2H-pyran-4-yl)-1H-imidazol-5-yl]-N-[6-(piperidin-1-ylmethyl)pyridin-3-yl]pyrimidin-2-amine]
Ki: 260 nM

Cc1ncc(-c2nc(Nc3ccc(CN4CCCN(C)CC4)nc3)ncc2F)n1C1CCOCC1 [Example 13, 5-Fluoro-N-{6-[(4-methyl-1,4-diazepan-1-yl)methyl]pyridin-3-yl}-4-[2-methyl-1-(tetrahydro-2H-pyran-4-yl)-1H-imidazol-5-yl]pyrimidin-2-amine]
Ki: 290 nM

Cc1ncc(-c2nc(Nc3ccc(CN4CCN(c5ncccn5)CC4)nc3)ncc2F)n1C1CCOCC1 [Example 14, 5-Fluoro-4-[2-methyl-1-(tetrahydro-2H-pyran-4-yl)-1H-imidazol-5-yl]-N-{6-[(4 pyrimidin-2-ylpiperazin-1-yl)methyl]pyridin-3-yl}pyrimidin-2-amine]
Ki: 10 nM

COC[C@@H]1CCCN1Cc1ccc(Nc2ncc(F)c(-c3cnc(C)n3C3CCOCC3)n2)cn1 [Example 15, 5-Fluoro-N-(6-{[(2S)-2-(methoxymethyl)pyrrolidin-1-yl]methyl}pyridin-3-yl)-4-[2-methyl-1-(tetrahydro-2H-pyran-4-yl)-1H-imidazol-5-yl]pyrimidin-2-amine]
Ki: 1300 nM

CC(=O)N1CCCN(Cc2ccc(Nc3ncc(F)c(-c4cnc(C)n4C4CCOCC4)n3)cn2)CC1 [Example 16, N-{6-[(4-Acetyl-1,4-diazepan-1-yl)methyl]pyridin-3-yl}-5-fluoro-4-[2-methyl-1-(tetrahydro-2H-pyran-4-yl)-1H-imidazol-5-yl]pyrimidin-2-amine]
Ki: 75 nM

Cc1ncc(-c2nc(Nc3ccc(CN4CC(C)OC(C)C4)nc3)ncc2F)n1C1CCOCC1 (stereo not shown) [Example 17, N-{6-[(2,6-Dimethylmorpholin-4-yl)methyl]pyridin-3-yl}-5-fluoro-4-[2-methyl-1-(tetrahydro-2H-pyran-4-yl)-1H-imidazol-5-yl]pyrimidin-2-amine]
Ki: 760 nM

Cc1ncc(-c2nc(Nc3ccc(CN4CCC(F)(F)CC4)nc3)ncc2F)n1C1CCOCC1 [Example 18, N-{6-[(4,4-Difluoropiperidin-1-yl)methyl]pyridin-3-yl}-5-fluoro-4-[2-methyl-1-(tetrahydro-2H-pyran-4-yl)-1H-imidazol-5-yl]pyrimidin-2-amine]
Ki: 42 nM

Cc1ncc(-c2nc(Nc3ccc(CN4CCCC4)nc3)ncc2F)n1C1CCOCC1 [Example 19, 5-Fluoro-4-[2-methyl-1-(tetrahydro-2H-pyran-4-yl)-1H-imidazol-5-yl]-N-[6-(pyrrolidin-1-ylmethyl)pyridin-3-yl]pyrimidin-2-amine]
Ki: 210 nM

Cc1ncc(-c2nc(Nc3ccc(CNCc4ccc(Cl)nc4)nc3)ncc2F)n1C1CCOCC1 [Example 20, N-[6-({[(6-Chloropyridin-3-yl)methyl]amino}methyl)pyridin-3-yl]-5-fluoro-4-[2-methyl-1-(tetrahydro-2H-pyran-4-yl)-1H-imidazol-5-yl]pyrimidin-2-amine]
Ki: 37 nM

Cc1ncc(-c2nc(Nc3ccc(CN4CCCOCC4)nc3)ncc2F)n1C1CCOCC1 [Example 21, 5-Fluoro-4-[2-methyl-1-(tetrahydro-2H-pyran-4-yl)-1H-imidazol-5-yl]-N-[6-(1,4 oxazepan-4-ylmethyl)pyridin-3-yl]pyrimidin-2-amine]
Ki: 79 nM

COC1CCN(Cc2ccc(Nc3ncc(F)c(-c4cnc(C)n4C4CCOCC4)n3)cn2)CC1 [Example 22, 5-Fluoro-N-{6-[(4-methoxypiperidin-1-yl)methyl]pyridin-3-yl}-4-[2-methyl-1-(tetrahydro-2H-pyran-4-yl)-1H-imidazol-5-yl]pyrimidin-2-amine]
Ki: 150 nM

Cc1ncc(-c2nc(Nc3ccc(CN4CCCC(CO)C4)nc3)ncc2F)n1C1CCOCC1 (stereo not shown) [Example 23, (1-{[5-({5-Fluoro-4-[2-methyl-1-(tetrahydro-2H-pyran-4-yl)-1H-imidazol-5-yl]pyrimidin-2-yl}amino)pyridin-2-yl]methyl}piperidin-3-yl)methanol]
Ki: 170 nM

Cc1ncc(-c2nc(Nc3ccc(CNCCCN4CCCC4=O)nc3)ncc2F)n1C1CCOCC1 [Example 24, 1-[3-({[5-({5-Fluoro-4-[2-methyl-1-(tetrahydro-2H-pyran-4-yl)-1H-imidazol-5-yl]pyrimidin-2-yl}amino)pyridin-2-yl]methyl}amino)propyl]pyrrolidin-2-one]
Ki: 230 nM

Cc1ncc(-c2nc(Nc3ccc(CN4CCC(N5CCCC5)CC4)nc3)ncc2F)n1C1CCOCC1 [Example 25, 5-Fluoro-4-[2-methyl-1-(tetrahydro-2H-pyran-4-yl)-1H-imidazol-5-yl]-N-{6-[(4 pyrrolidin-1-ylpiperidin-1-yl)methyl]pyridin-3-yl}pyrimidin-2-amine]
Ki: 210 nM

Cc1ncc(-c2nc(Nc3ccc(CN(CCC#N)CC4CCCO4)nc3)ncc2F)n1C1CCOCC1 (stereo not shown) [Example 26, 3-[{[5-({5-Fluoro-4-[2-methyl-1-(tetrahydro-2H-pyran-4-yl)-1H-imidazol-5-yl]pyrimidin-2-yl}amino)pyridin-2-yl]methyl}(tetrahydrofuran-2-ylmethyl)amino]propanenitrile]
Ki: 75 nM

Cc1ncc(-c2nc(Nc3ccc(CN4CCC4)nc3)ncc2F)n1C1CCOCC1 [Example 27, N-[6-(Azetidin-1-ylmethyl)pyridin-3-yl]-5-fluoro-4-[2-methyl-1-(tetrahydro-2H-pyran-4-yl)-1H-imidazol-5-yl]pyrimidin-2-amine]
Ki: 330 nM

CCN(CCOC)Cc1ccc(Nc2ncc(F)c(-c3cnc(C)n3C3CCOCC3)n2)cn1 [Example 28, N-(6-{[Ethyl(2-methoxyethyl)amino]methyl}pyridin-3-yl)-5-fluoro-4-[2-methyl-1-(tetrahydro-2H-pyran-4-yl)-1H-imidazol-5-yl]pyrimidin-2-amine]
Ki: 280 nM

Cc1ncc(-c2nc(Nc3ccc(CNCC#N)nc3)ncc2F)n1C1CCOCC1 [Example 29, ({[5-({5-Fluoro-4-[2-methyl-1-(tetrahydro-2H-pyran-4-yl)-1H-imidazol-5-yl]pyrimidin-2-yl}amino)pyridin-2-yl]methyl}amino)acetonitrile]
Ki: 48 nM

Cc1ncc(-c2nc(Nc3cncc4ccccc34)ncc2F)n1C1CCOCC1 [Example 30, {5-Fluoro-4-[2-methyl-3-(tetrahydro-pyran-4-yl)-3H-imidazol-4-yl]-pyrimidin-2-yl}-isoquinolin-4-yl-amine]
Ki: 200 nM

Cc1ncc(-c2nc(Nc3ccncc3)ncc2F)n1C1CCOCC1 [Example 31, {5-Fluoro-4-[2-methyl-3-(tetrahydro-pyran-4-yl)-3H-imidazol-4-yl]-pyrimidin-2-yl}-pyridin-4-yl-amine]
Ki: 39 nM

Cc1ncc(-c2nc(NC3CCN(C(=O)OC(C)(C)C)CC3)ncc2F)n1C1CCOCC1 [Example 33, tert-Butyl 4-({5-fluoro-4-[2-methyl-1-(tetrahydro-2H-pyran-4-yl)-1H-imidazol-5-yl]pyrimidin-2-yl}amino)piperidine-1-carboxylate]
Ki: 210 nM
